# Measured values published in ChEMBL document CHEMBL4196030, “Enediynes bearing polyfluoroaryl sulfoxide as new antiproliferative agents with dual targeting of microtubules and DNA” (Eur J Med Chem, 2018).
# The source made the active and inactive calls. No cut-off for these calls is given here.
# What was measured:
# [1] = tested on: HUVEC; test: Antiproliferative activity against HUVEC after 70 hrs by alamar blue assay; format: cell-based; settings: Homo sapiens
# [2] = Ratio of IC50 for antiproliferative activity against human HBL100 cells to IC50 for cytotoxicity against human HBL100 cells; format: cell-based, HBL-100; settings: read-out: Ratio IC50
# [3] = Ratio of IC50 for antiproliferative activity against human BEAS2B cells to IC50 for cytotoxicity against human BEAS2B cells; format: cell-based, BEAS-2B; settings: read-out: Ratio IC50
# [4] = tested on: HBL-100; test: Antiproliferative activity against human HBL100 cells after 70 hrs by alamar blue assay; format: cell-based; settings: HBL-100, 70 h
# [5] = tested on: HBL-100; test: Cytotoxicity against human HBL100 cells assessed as reduction in cell viability after 70 hrs by alamar blue assay; format: cell-based; settings: HBL-100, 70 h
# [6] = Ratio of IC50 for antiproliferative activity against human MIAPaCa2 cells to IC50 for cytotoxicity against human MIAPaCa2 cells; design: species or system MIA PaCa-2
# [7] = tested on: A549; test: Disruption of microtubule network in human A549 cells at 5 times antiproliferative IC50 after 1 to 12 hrs by immunofluorescence assay; format: cell-based
# [8] = tested on: MIA PaCa-2; test: Antiproliferative activity against human MIAPaCa2 cells after 70 hrs by alamar blue assay; format: functional, cell-based; settings: MIA PaCa-2, 70 h
# [9] = organism: Homo sapiens; test: Disruption of microtubule network in human MIAPaCa2 cells at 5 times antiproliferative IC50 after 1 to 12 hrs by immunofluorescence assay; format: cell-based
# [10] = tested on: A498; test: Disruption of microtubule network in human A498 cells at 5 times antiproliferative IC50 after 1 to 12 hrs by immunofluorescence assay; format: cell-based
# [11] = tested on: BEAS-2B; test: Cytotoxicity against human BEAS2B cells assessed as reduction in cell viability after 70 hrs by alamar blue assay; format: cell-based
# [12] = tested on: HUVEC; test: Cytotoxicity against HUVEC assessed as reduction in cell viability after 70 hrs by alamar blue assay; format: cell-based; settings: Homo sapiens
# [13] = tested on: BEAS-2B; test: Antiproliferative activity against human BEAS2B cells after 70 hrs by alamar blue assay; format: cell-based
# [14] = tested on: MIA PaCa-2; test: Cytotoxicity against human MIAPaCa2 cells assessed as reduction in cell viability after 70 hrs by alamar blue assay; format: cell-based; settings: MIA PaCa-2, 70 h
# [15] = Antiproliferative activity against human GERL3.0 cells after 70 hrs by alamar blue assay; format: functional, cell-based
# [16] = Selectivity ratio of IC50 for antiproliferative activity against human Caco2 cells under dark condition to IC50 for antiproliferative activity against human Caco2 cells under 0.6 J/cm2 light irradiation; format: functional, Caco-2
# [17] = tested on: MOLT-4; test: Antiproliferative activity against human MOLT4 cells preincubated for 4 hrs followed by 0.6 J/cm2 light irradiation for 10 mins and measured after 70 hrs by alamar blue assay; format: functional, cell-based; settings: MOLT-4, light or radiation study
# [18] = tested on: MOLT-4; test: Antiproliferative activity against human MOLT4 cells after 70 hrs by alamar blue assay; format: functional, cell-based; settings: MOLT-4, 70 h
# [19] = Selectivity ratio of IC50 for antiproliferative activity against human GERL3.0 cells under dark condition to IC50 for antiproliferative activity against human GERL3.0 cells under 0.6 J/cm2 light irradiation; format: functional
# [20] = tested on: Caco-2; test: Antiproliferative activity against human Caco2 cells after 70 hrs by alamar blue assay; format: functional, cell-based; settings: Caco-2, 70 h
# [21] = tested on: A549; test: Antiproliferative activity against human A549 cells after 70 hrs by alamar blue assay; format: functional, cell-based; settings: A549, 70 h
# [22] = Selectivity ratio of IC50 for antiproliferative activity against human A549 cells under dark condition to IC50 for antiproliferative activity against human A549 cells under 0.6 J/cm2 light irradiation; format: functional
# [23] = Induction of supercoiled plasmid complementary DNA3 cleavage at 100 uM after 1 hr by gel electrophoresis method
# [24] = Selectivity ratio of IC50 for antiproliferative activity against human MOLT4 cells under dark condition to IC50 for antiproliferative activity against human MOLT4 cells under 0.6 J/cm2 light irradiation; format: functional, MOLT-4
# [25] = tested on: PC-3; test: Antiproliferative activity against human PC3 cells preincubated for 4 hrs followed by 0.6 J/cm2 light irradiation for 10 mins and measured after 70 hrs by alamar blue assay; format: functional, cell-based; settings: PC-3, light or radiation study
# [26] = tested on: A-431; test: Antiproliferative activity against human A431 cells after 70 hrs by alamar blue assay; format: functional, cell-based; settings: A-431, 70 h
# [27] = tested on: MDA-MB-231; test: Antiproliferative activity against human MDA-MB-231 cells after 70 hrs by alamar blue assay; format: functional, cell-based; settings: MDA-MB-231, 70 h
# [28] = tested on: A498; test: Antiproliferative activity against human A498 cells after 70 hrs by alamar blue assay; format: functional, cell-based; settings: A498, 70 h
# [29] = Selectivity ratio of IC50 for antiproliferative activity against human A431 cells under dark condition to IC50 for antiproliferative activity against human A431 cells under 0.6 J/cm2 light irradiation; format: functional, A-431
# [30] = tested on: PC-3; test: Antiproliferative activity against human PC3 cells after 70 hrs by alamar blue assay; format: functional, cell-based; settings: PC-3, 70 h
# [31] = tested on: MDA-MB-231; test: Antiproliferative activity against human MDA-MB-231 cells preincubated for 4 hrs followed by 0.6 J/cm2 light irradiation for 10 mins and measured after 70 hrs by alamar blue assay; format: functional, cell-based; settings: MDA-MB-231, light or radiation study
# [32] = tested on: Caco-2; test: Antiproliferative activity against human Caco2 cells preincubated for 4 hrs followed by 0.6 J/cm2 light irradiation for 10 mins and measured after 70 hrs by alamar blue assay; format: functional, cell-based; settings: Caco-2, light or radiation study
# [33] = Induction of supercoiled plasmid complementary DNA3 cleavage at 100 uM after 1 hr under LED light irradiation by gel electrophoresis method
# [34] = Selectivity ratio of IC50 for antiproliferative activity against human A498 cells under dark condition to IC50 for antiproliferative activity against human A498 cells under 0.6 J/cm2 light irradiation; format: functional
# [35] = Antiproliferative activity against human GERL3.0 cells preincubated for 4 hrs followed by 0.6 J/cm2 light irradiation for 10 mins and measured after 70 hrs by alamar blue assay; format: functional, cell-based; settings: light or radiation study
# [36] = tested on: MIA PaCa-2; test: Potency index, ratio of 5-fluorouracil IC50 to compound IC50 for antiproliferative activity against human MIAPaCa2 cells; format: functional
# [37] = tested on: A498; test: Antiproliferative activity against human A498 cells preincubated for 4 hrs followed by 0.6 J/cm2 light irradiation for 10 mins and measured after 70 hrs by alamar blue assay; format: functional, cell-based; settings: A498, light or radiation study
# [38] = Selectivity ratio of IC50 for antiproliferative activity against human PC3 cells under dark condition to IC50 for antiproliferative activity against human PC3 cells under 0.6 J/cm2 light irradiation; format: functional, PC-3
# [39] = tested on: A-431; test: Antiproliferative activity against human A431 cells preincubated for 4 hrs followed by 0.6 J/cm2 light irradiation for 10 mins and measured after 70 hrs by alamar blue assay; format: functional, cell-based; settings: A-431, light or radiation study
# [40] = Selectivity ratio of IC50 for antiproliferative activity against human MDA-MB-231 cells under dark condition to IC50 for antiproliferative activity against human MDA-MB-231 cells under 0.6 J/cm2 light irradiation; format: functional
# [41] = tested on: MIA PaCa-2; test: Antiproliferative activity against human MIAPaCa2 cells preincubated for 4 hrs followed by 0.6 J/cm2 light irradiation for 10 mins and measured after 70 hrs by alamar blue assay; format: functional, cell-based; settings: MIA PaCa-2, light or radiation study
# [42] = tested on: A549; test: Antiproliferative activity against human A549 cells preincubated for 4 hrs followed by 0.6 J/cm2 light irradiation for 10 mins and measured after 70 hrs by alamar blue assay; format: functional, cell-based; settings: A549, light or radiation study
# [43] = Selectivity ratio of IC50 for antiproliferative activity against human MIAPaCa2 cells under dark condition to IC50 for antiproliferative activity against human MIAPaCa2 cells under 0.6 J/cm2 light irradiation; format: functional, MIA PaCa-2
# [44] = tested on: K562; test: Antiproliferative activity against human K562 cells after 70 hrs by alamar blue assay; format: functional, cell-based; settings: K562, 70 h
smiles,measurement,setting,value
[O-][S+](CC#Cc1ccccc1C#CCO)c1ccccc1 (centres undefined),IC50,[1],79.8 µM
same,selectivity ratio,[2],1.8
same,selectivity ratio,[3],2.8
same,IC50,[4],19 µM
same,IC50,[5],35.4 µM
same,Ratio IC50,[6],7.8
same,Activity,[7],inactive
same,IC50,[8],15.9 µM
same,Activity,[9],inactive
same,Activity,[10],inactive
same,IC50,[11],81.9 µM
same,IC50,[12],66.2 µM
same,IC50,[13],29.5 µM
same,IC50,[14],124 µM
[O-][S+](CC#Cc1c(C#CCO)sc2ccccc12)c1c(F)c(F)c(F)c(F)c1F (centres undefined),IC50,[8],2.2 µM
[O-][S+](CC#Cc1cccnc1C#CCOC1CCCCO1)c1c(F)c(F)c(F)c(F)c1F (centres undefined),IC50,[8],1 µM
COc1ccc(NS(=O)(=O)c2c(F)c(F)c(F)c(F)c2F)cc1F [BATABULIN],IC50,[1],6.3 µM
same,selectivity ratio,[2],> 190
same,selectivity ratio,[3],> 3.2
same,IC50,[4],0.2 µM
same,IC50,[5],> 40 µM
same,Ratio IC50,[6],35.8
same,Activity,[10],Active
same,IC50,[11],> 40 µM
same,IC50,[12],16.4 µM
same,IC50,[13],12.2 µM
same,IC50,[14],47.3 µM
COc1cc2c(c(OC)c1OC)-c1ccc(OC)c(=O)cc1[C@@H](NC(C)=O)CC2,Activity,[10],Active
O=S(=O)(CC#Cc1ccccc1C#CCO)c1c(F)c(F)c(F)c(F)c1F,IC50,[8],3.9 µM
[O-][S+](CC#Cc1cccnc1C#CCO)c1c(F)c(F)c(F)c(F)c1F (centres undefined),IC50,[1],0.6 µM
same,selectivity ratio,[2],19.3
same,IC50,[15],0.9 µM
same,Ratio IC50,[16],2
same,selectivity ratio,[3],18.6
same,IC50,[4],1.4 µM
same,IC50,[17],0.4 µM
same,IC50,[18],0.6 µM
same,IC50,[5],27.1 µM
same,Ratio IC50,[19],1.4
same,Ratio IC50,[6],25.3
same,IC50,[20],1 µM
same,IC50,[21],1.6 µM
same,Ratio IC50,[22],2
same,Activity,[23],inactive
same,Ratio IC50,[24],1.6
same,Activity,[7],Active
same,IC50,[25],0.5 µM
same,IC50,[8],0.8 µM
same,IC50,[26],1.5 µM
same,IC50,[27],1.2 µM
same,Activity,[9],Active
same,Activity,[10],Active
same,IC50,[28],3.4 µM
same,IC50,[11],19.6 µM
same,Ratio IC50,[29],1.3
same,IC50,[30],1.4 µM
same,IC50,[31],0.5 µM
same,IC50,[32],0.5 µM
same,IC50,[12],8.8 µM
same,Activity,[33],Active
same,Ratio IC50,[34],1.1
same,IC50,[35],0.6 µM
same,Ratio IC50,[36],6
same,IC50,[37],3.2 µM
same,IC50,[13],1 µM
same,Ratio IC50,[38],2.5
same,IC50,[39],1.1 µM
same,Ratio IC50,[40],2.2
same,IC50,[14],20.5 µM
same,IC50,[41],0.2 µM
same,IC50,[42],0.8 µM
same,Ratio IC50,[43],3.7
same,IC50,[44],0.7 µM
COCCOCOCC#Cc1ncccc1C#CC[S+]([O-])c1c(F)c(F)c(F)c(F)c1F (centres undefined),IC50,[8],0.8 µM
